According to US8563054B2, “Anti-inflammatory agent” (Maruzen Pharmaceuticals Co., Ltd., priority 2005, dated 2013):
In brackets after ≈: the same amount, converted by molar mass.

Tests used:
[1] = system: rat basophilic leukemia cells (RBL-2H3); test: Assay of inhibitory effect on hexosaminidase release (indicator of histamine release); assay type: cell-based; details: RBL-2H3, DNP-specific IgE / DNP-BSA stimulation; by interpolation
Method: For the extracts and purified materials prepared in Production Examples 1 to 5 (hereinafter, may be referred to as “sample”), inhibitory effect on hexosaminidase release was tested as follows. Since hexosaminidase is also released simultaneously upon release of to histamine inside a cell, the inhibitory effect on histamine release can be evaluated using hexosaminidase release as an indicator of histamine release.
First, rat basophilic leukemia cells (RBL-2H3) were cultured using a medium (S-MEM medium with 15% FBS; hereinafter the same) placed in 25 mL culture flasks, and then cells were collected by trypsin treatment. […]
Then, release was stopped by leaving the 96 well plate at rest on ice. […] After completion of the reaction, 250 μL of 0.1 mol/L Na2CO3/NaHCO3 was added to each well, and the absorbance at the wavelength of 415 nm was determined.
Next, as a blank test, the absorbance of a mixture of 10 μl it of cell supernatant and 250 μL of 0.1 mol/L Na2CO3/NaHCO3 at the wavelength of 415 nm was determined and was used for correction.
From the results of the measurements mentioned above, the percentage inhibition of hexosaminidase release was determined according to the following formula 2: % Inhibition of hexosaminidase release=[1−(B−C)/A]×100 <Formula 2> […]

[2] = system: rabbit washed platelet suspension; test: Platelet aggregation inhibitory effect (collagen-induced, washed platelets); assay type: cell-based; details: collagen as aggregation inducing agent, by interpolation
Method: For the extracts and purified materials prepared in Production Examples 1 to 5 (hereinafter, may be referred to as “sample”), inhibitory effect on platelet aggregation was tested as follows.
First, rabbit blood, which was collected with the addition of 1/10 amount of 77 mmol/L EDTA (pH 7.4), was centrifuged (180×g, 10 minutes, room temperature) to obtain platelet suspension. Next, the platelet suspension was centrifuged (810×g, 10 minutes, 4° C.), and the supernatant was removed to obtain platelet. This was suspended in platelet washing solution (0.15 mol/L sodium chloride: 0.15 mol/L Tris-HCL buffer (pH 7.4): 77 mmol/L EDTA (pH7.4)=90:8:2), centrifuged in the same way as mentioned above. […]
Next, to 222 μL of the prepared washed platelet suspension, 1 μL of 200 mmol/L calcium chloride solution was added and allowed to react at 37° C. for 1 minute. […] Separately, rate of platelet aggregation, B, was determined in a similar operation to that mentioned above except that the solvent of sample solution was added instead of the sample solution. % Inhibition of platelet aggregation=[(B−A)/B]×100 <Formula 3> […]
Next, the sample concentration was reduced in a stepwise manner, and the above-mentioned percentage inhibition of platelet aggregation was measured. The sample concentration, at which 50% of platelet aggregation is inhibited, was determined by interpolation. […]

[3] = target: T1, hyaluronidase (Type IV-S, from bovine testis) (Bos taurus, UniProt Q2YDK3); test: Hyaluronidase activity inhibition assay; assay type: biochemical; details: pH 3.5, 37° C., by interpolation
T1 construct: hyaluronidase solution (Type IV-S (from bovine testis))
T1 sequence (Q2YDK3 1-553): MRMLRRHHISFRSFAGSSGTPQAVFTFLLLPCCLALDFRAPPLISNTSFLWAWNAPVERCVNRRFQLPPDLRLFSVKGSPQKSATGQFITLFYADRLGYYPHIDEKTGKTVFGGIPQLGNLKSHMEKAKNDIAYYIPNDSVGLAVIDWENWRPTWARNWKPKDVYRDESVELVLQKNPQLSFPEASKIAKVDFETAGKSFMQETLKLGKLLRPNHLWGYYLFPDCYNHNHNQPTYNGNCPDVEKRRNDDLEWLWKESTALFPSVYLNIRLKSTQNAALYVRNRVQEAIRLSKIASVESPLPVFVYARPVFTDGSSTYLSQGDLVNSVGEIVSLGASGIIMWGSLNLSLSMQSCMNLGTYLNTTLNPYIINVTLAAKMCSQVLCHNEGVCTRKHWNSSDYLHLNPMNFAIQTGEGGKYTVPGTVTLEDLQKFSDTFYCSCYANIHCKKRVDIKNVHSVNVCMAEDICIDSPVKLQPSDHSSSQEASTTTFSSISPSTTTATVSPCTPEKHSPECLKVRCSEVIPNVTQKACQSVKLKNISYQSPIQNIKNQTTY
Method: For the extracts and purified materials prepared in Production Examples 1 to 5 (hereinafter, may be referred to as “sample”), inhibitory effect on hyaluronidase activity was tested as follows.
First, 0.1 mL of hyaluronidase solution (Type IV-S (from bovine testis; SIGMA 400 NF units/mL) was added to 0.1 mol/L acetic acid buffer (pH 3.5) in which each sample was dissolved, and allowed to react at 37° C. for 20 minutes.
Next, 0.2 mL of 2.5 mmol/L calcium chloride was added as an activating agent and allowed to react at 37° C. for 20 minutes. To this solution, 0.5 mL of 0.4 mg/mL potassium hyaluronate solution (from rooster comb) was added and allowed to react at 37° C. for 40 minutes. […] After that, absorbance at the wavelength of 585 nm was determined.
Next, similar operations and absorbance determination were performed without addition of enzyme. Further, as a control, using distillated water instead of sample solution, similar operations and absorbance determination were performed.
From the results of the measurements mentioned above, the percentage inhibition of hyaluronidase activity was calculated according to the following formula 1: % Inhibition of hyaluronidase activity=[1−(St−Sb)/(Ct−Cb)]×100 <Formula 1> […]
Next, the sample concentration was reduced in a stepwise manner, and the above-mentioned percentage inhibition of hyaluronidase activity was measured. […]

| SMILES | Sample concentration for 50% inhibition of hexosaminidase release [1] [µg/mL] | Sample concentration for 50% inhibition of platelet aggregation [2] [µg/mL] | Sample concentration for 50% inhibition of hyaluronidase activity [3] [µg/mL] | IC50 ([2]; Oryctolagus cuniculus, Platelet, read-out: Sample concentration for 50% inhibition of platelet aggregation) [µg/mL] | IC50 ([3]; read-out: Sample concentration for 50% inhibition of hyaluronidase activity (converted)) [µM] |
| --- | --- | --- | --- | --- | --- |
| C=CC(C)(C)c1cc(/C=C/C(=O)c2ccc(O)cc2)c(OC)cc1O [Licochalcone A of Production Example 5, licochalcone A] | 23.5 | 79.7 | 17.2 |  |  |
| CC1(C)C=Cc2c(ccc3c2OC[C@@H](c2ccc(O)cc2O)C3)O1 [Glabridin of Production Example 4, glabridin] |  |  |  | 400 (≈ 1230 µM) | 56.4 |
